Series [1] has as its target T1, S15V-hP2X3R (Homo sapiens, UniProt P56373, S15V).
T1 construct: expressed in transfected cells; host or cells: Xenopus laevis oocytes (cRNA injection)
T1 sequence (P56373 1-397 S15V): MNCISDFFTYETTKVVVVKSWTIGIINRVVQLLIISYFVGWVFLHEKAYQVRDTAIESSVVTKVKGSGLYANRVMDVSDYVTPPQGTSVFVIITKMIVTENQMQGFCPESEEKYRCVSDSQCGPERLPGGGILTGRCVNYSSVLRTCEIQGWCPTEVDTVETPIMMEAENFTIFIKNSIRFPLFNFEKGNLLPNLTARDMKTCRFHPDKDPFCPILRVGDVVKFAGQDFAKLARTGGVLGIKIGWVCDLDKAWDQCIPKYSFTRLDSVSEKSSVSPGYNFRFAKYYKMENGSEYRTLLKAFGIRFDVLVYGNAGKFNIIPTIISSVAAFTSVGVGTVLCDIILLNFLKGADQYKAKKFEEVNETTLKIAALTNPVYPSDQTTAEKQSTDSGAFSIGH
The experiment in a line: TEVC of ATP-induced currents, S15V-hP2X3R expressed in X. laevis oocytes (peak current protocol). Format: cell-based. The settings on record: for IC50 / inhibition at 1000 µM: 1 µM ATP; for IC50: 30-s preincubation of antagonist, X. laevis oocytes, −60 mV, geometric mean; for inhibition at 1000 µM: 1 mM antagonist, mean ± SEM, read-out: Max. inhibition at 1 mM; for reversibility of the inhibitory effect by washout: subsequent control current after washout. An excerpt:
Oocyte expression plasmids encoding the wild-type (wt) and N-terminally His-tagged (His-) fusion constructs of the hP2X2R, hP2X3R, hP2X4R, and hP2X7R, and the mutant His-^20RMVL^23KVIV^23S^26N-hP2X1R, S^15V-rP2X3R, and His-S^15V-hP2X3R were the same as used in previous research ([Hausmann et al., 2006]; [Wolf et al., 2011]; [Hausmann et al., 2014]; [Obrecht et al., 2019]). In most cases, the N-terminal His-tagged variants of P2XRs were used here and in the previous studies to allow biochemical analyses on affinity-purified proteins using the same constructs. Although this was not required for the present study, it allows for better comparability with our previous studies. Capped cRNAs of different P2XRs were already available in the research group or were synthesized as previously described ([Schmalzing et al., 1991]; [Stolz et al., 2015]). cRNA was injected into collagenase-defolliculated X. laevis oocytes in aliquots of 41 nl or 23 nl (see Supplementary Table S1 for the amount of cRNA used for expression of the indicated P2XR) using a Nanoliter 2000 injector (World Precision Instruments, Sarasota, United States of America) as described previously ([Hausmann et al., 2014]; [Stolz et al., 2015]; [Obrecht et al., 2019]). To express the heteromeric hP2X2/3 receptor, cRNAs encoding His-hP2X2R and wt-hP2X3R were coinjected at a ratio (w/w) of 1:6. Oocytes were stored at 19°C in an oocyte ringer solution (ORi^+) containing 90 mM NaCl, 1 mM KCl, 1 mM CaCl2, 1 mM MgCl2, and 10 mM HEPES (Carl Roth, Karlsruhe, Germany) adjusted to pH 7.4 with NaOH and supplemented with 50 μg/ml gentamicin (AppliChem, Darmstadt, Germany). The procedures followed for the maintenance of and the surgical treatment for X. laevis adults were approved by the governmental animal care and use committee of the State Agency for Nature, Environment, and Consumer Protection (LANUV, Recklinghausen, Germany; reference no. 81-02.04.2019. A355), in compliance with Directive 2010/63/EU of the European Parliament and of the Council on the protection of animals used for scientific purpose.
Ion currents mediated by P2X receptors were evoked by the indicated concentration of ATP or α,β-meATP and were recorded 1 or 2 days after cRNA injection at ambient temperature at a holding potential of −60 mV by two-electrode voltage clamp (TEVC) as previously described ([Hausmann et al., 2006]). Calcium-free ORi^− solution (90 mM NaCl, 1 mM KCl, 2 mM MgCl2, 10 mM HEPES, pH 7.4) was used to avoid bias due to calcium-activated chloride channels (CaCC) endogenously expressed in X. laevis oocytes ([Miledi, 1982]; [Methfessel et al., 1986]). For recordings of wt-hP2X7R, the composition of the ORi^− solution was modified according to protocols described previously and contained 100 mM NaCl, 2.5 mM KCl, 1 mM MgCl2, 5 mM HEPES, pH 7.4 ([Klapperstück et al., 2000]). The oocytes were continuously superfused with ORi^− by gravity flow (5–10 ml/min). The agonists ATP or α,β-meATP and the investigated NSAIDs were diluted in ORi^− on the day of the recording. […] A peak current protocol (Supplementary Figure S1) was used to analyze fast- and intermediate desensitizing P2XR subtypes (P2X1R, P2X3R, and S^15V-P2X3R), and a steady-state protocol (Supplementary Figure S2) was used for slowly or partially desensitizing P2X subtypes (P2X2R, P2X2/3R, and P2X4R). For recordings of P2X7R, a modified steady-state protocol was used ([Hausmann et al., 2006]). The application of different bath solutions was controlled by computer-operated magnetic valves controlled by the CellWorks E 5.5.1 software (npi electronic, Tamm, Germany).
Antagonist concentration–response data and IC50 values were calculated by normalizing ATP-induced responses to the control responses (recorded in the presence and absence of the antagonist, respectively). […]

For series [2] the following is noted: cited from earlier work.

Molecules are shown by their SMILES. Values joined by “and” are separate entries in the source; they are usually repeats but may differ in a detail not shown here. Equal entries are not always repeated.

As to `O=C(O)Cc1ccccc1Nc1c(Cl)cccc1Cl` [Diclofenac, diclofenac], in series [1], the IC50 was 138 µM, the inhibition at 1000 µM was around 80% and the “reversibility of the inhibitory effect by washout” value is recorded as “not reversible”. The “reduction of current amplitude in the presence of 3–10 µM diclofenac” value in series [1] (3–10 µM diclofenac) is 20%–30%. In series [1] (read-out: % inhibition of 10 µM ATP-induced currents by 3 µM diclofenac, 3 µM diclofenac, 10 µM ATP, ± SEM), the inhibition at 3 µM was -1.6%. For the same molecule, in series [1] (read-out: % inhibition of 10 µM ATP-induced currents by 30 µM diclofenac, 30 µM diclofenac, 10 µM ATP, ± SEM), the inhibition at 30 µM is 24%. Further, in series [2] (injected intramuscularly, ref Drago et al., 2017), the “plasma levels, intramuscular injection” value is “approximately 1.8 μg/ml and ~6 μM”. Moreover, the “maximum plasma levels, oral” value in series [2] (oral application of 50–75 mg diclofenac, ref Kurowski et al., 1994, Kienzler et al., 2010) was 2.3–2.6 μg/ml and 7–8 μM. Moreover, the “plasma levels, transdermal application” value in series [2] (transdermal application, ref Efe et al., 2014) was “low nanomolar”.
`O=C(O)c1ccccc1Nc1cccc(C(F)(F)F)c1` [Flufenamic acid, flufenamic acid]: in series [1], the IC50 is 221 µM and 222 µM; the inhibition at 1000 µM turned out to be 69.8%; the “reversibility of the inhibitory effect by washout” value is recorded as “not reversible”. Further, the “plasma levels, transdermal, repetitive application” value in series [2] (applied transdermally, even with repetitive application, ref Drago et al., 2017) was at most 180 nM.
